Structures can show the parent of a compound that is named as a salt.
Legend:
5-lipoxygenase enzyme = assay: RBL-1 5-Lipoxygenase Screen (Method B), cell free; type: biochemical; conditions: 2 min
Protocol: RBL-1 5-Lipoxygenase Screen
5-Lipoxygenase enzyme was prepared as a 10,000 g supernatant from RBL-1 cells by the method of Jakschik [Jakschik, B. A., F. F. Sun, L. M. Lee, and M. M. Steinhoff, 1980, Biochem. Biophys. Res. Comm. 95, 103]. The 10,000 g supernatant was diluted with homogenization buffer to the equivalent of 1.5-2.5×10^7 cells. ml^-1 and made 2 mM with respect to CaCl2. Aliquots of 0.5 ml were then dispensed into tubes, and incubated at 29° C. with 5 μl ethanol or compound in ethanol at the desired concentration for 2 min. Then […] arachidonic acid was added in buffer to give final concentration of 6.3 μM and 0.2 μCi per incubation, and the reaction continued at 29° C. for 2 min. The reaction was terminated by adding 1 ml of acetone and cooling on ice, 0.5 ml of ice-cold saline and 10 μl of 2N formic acid were added, and the mixture was extracted with 2×2 ml of chloroform. The extract was stored under N2 at -20° C. until analysis by chromatography.
This test is used to show inhibition of the 5-lipoxygenase enzyme in a mammalian RBL-1 cell free 5-lipoxygenase assay.

[1] = test system: development of arthritis in the rat adjuvant arthritis model; assay: Rat Adjuvant Arthritis Model (Method A); type: in vivo; conditions: 25 mg/kg (i.p.)
Protocol: Rat Adjuvant Arthritis Model
The test is as described by Newbould, Brit. J. Pharmacol., 1963, 21, 127-136.
It is used to indicate anti-rheumatic activity as shown by inhibiting the development of arthritis in the rat adjuvant arthritis model. The compound of Example 1 is active at a concentration of 25 mg/kg (i.p.)

[2] = test system: carrageenin-induced pleurisy in the rat; assay: Carrageenin-induced pleurisy in the rat (Method C); type: in vivo; conditions: 1 hour before and 24 and 48 hours after carrageenin
Protocol: CARRAGEENIN-INDUCED PLEURISY IN THE RAT This model of monocyte accumulation is based on the method of R. Vinegar, J. F. Truax, J. […] [Federation Proceedings 41, 2588-2595, 1982]. 0.2 ml of a 2.0% solution of λ-carrageenin (Viscarin 402) in saline was injected intrapleurally in anaesthetised rats (wt. approx. 175-200 g). […] Exudate volume was calculated from the dilution of the phenol red injected, determined spectrophotometrically (560 nm) and cellular content estimated with a DNA assay [[…]. and Wollenberger A. Anal. Biochem. 77, 464-470, 1977]. This test is used to indicate anti-inflammatory activity against carrageenin-induced pleurisy in the rat.

SRS-A release = assay: Rat passive peritoneal anaphylaxis (PPA), SRS-A release (Method D); type: in vivo; conditions: final concentration of 2×10^-4 M, intraperitoneal
Text: Rat passive peritoneal anaphylaxis (PPA) The method is essentially similar to that described previously by Ross et al (Ross, Janet W., Smith, H. and Spicer, Barbara A. Increased vascular permeability during passive peritoneal anaphylaxis in the rat. Int. Arch. Allergy appl. Innum. 51, 226, 1976.) Charles River Sprague Dawley male rats of 225-275 g and Dunkin Hartley male white guinea pigs of 300-700 g were used. Charles River Sprague Dawley male rats of 225-275 g were given intraperitoneal injections of 0.5 ml of either Bordetella pertussis vaccine (4×10^10 organisms/ml; Burroughs Wellcome, London) or Pertussis vaccine absorbed (not less than 41.u. B. pertussis antigen with aluminium hydroxide; The Lister Institute Elstree, England), and subcutaneous injections of 0.5 ml of an emulsion of 100 mg of ovalbumin (chicken egg albumin; crystallised and lyophilised, grade V, Sigma, London) in 2 ml of isotonic saline and 3 ml of incomplete Freund's adjuvant. The rats were bled by cardiac puncture, under ether anaesthesia,on day 18, the blood was pooled and the serum separated, stored at -20° C. and thawed only once before use. The serum produced 72 hour passive cutaneous anaphylaxis activity in recipient rats to a dilution of 1:64 which was decreased to a dilution of less than 1:2 by heating at 56° C. for 4 hours. Rats were given intraperitoneal injections of 2 ml of a 1:5 dilution of the rat anti-serum in isotonic saline. Two hours later 0.3 ml of 5% solution of Pontamine Sky Blue (Raymond A. Lamb, London) in isotonic saline was injected intraveneously, followed by an intraperitoneal injection of the test compound in 1 ml of saline; (control rats received 1 ml of saline); followed 2.5 minutes later by an intraperitoneal injection of 5 ml of a Tyrode solution containing 50 μg/ml heparin and 0.4 mg/ml of ovalbumin. The concentrations of the compounds were quoted as that in the 6 ml of fluid injected intraperitoneally. […]

Compound	anti-inflammatory activity against carrageenin-induced pleurisy ([2]; 25 mg/kg (p.o.))	% inhibition of SRS-A release compared to controls (SRS-A release) [%]	also measured
Cc1ccc(O)c2[nH]c(Cc3ccccc3)nc12 [Example 1, 2-Benzyl-4-hydroxy-7-methylbenzimidazole]			percentage inhibition (5-lipoxygenase; formation of 5-HETE and 5,12-diHETE) (5-lipoxygenase enzyme; 0.5 μM concentration, p<0.01): 36.0 percentage; percentage inhibition (5-lipoxygenase; formation of 5-HETE and 5,12-diHETE) (5-lipoxygenase enzyme; 5 μM concentration, p<0.001): 78.1 percentage; anti-rheumatic activity: inhibition of the development of arthritis in the rat adjuvant arthritis model [1]: active
Cc1ccc(Cc2nc3c(C)ccc(O)c3[nH]2)cc1 [Example 10, 2-(4'-Methylbenzyl)-4-hydroxy-7-methylbenzimidazole]	active		
COc1ccc(Cc2nc3c(C)ccc(O)c3[nH]2)cc1.Cl [Example 12, 2-(4'-Methoxybenzyl)-4-hydroxy-7-methylbenzimidazole hydrochloride]	active	58	
Cc1ccc(O)c2[nH]c(CCCCCC(=O)O)nc12 [Example 18, 6-(4-Hydroxy-7-methyl-benzimidazol-2-yl)-hexanoic acid hydrochloride hydrate (3:3:1)]			anti-inflammatory activity against carrageenin-induced pleurisy ([2]; 12 mg/kg (i.p)): active
COc1cc(Cc2nc3c(C)ccc(O)c3[nH]2)cc(OC)c1OC.Cl [Example 25, 2-(3',4',5'-Trimethoxybenzyl)-4-hydroxy-7-methylbenzimidazole hydrochloride]		59	
COc1ccc(Cc2nc3c(C)ccc(O)c3[nH]2)cc1OC.Cl [Example 26, 2-(3',4'-Dimethoxybenzyl)-4-hydroxy-7-methylbenzimidazole hydrochloride]		55	

Reference: patent US4925853A, “Benzimidazoles as 5-lipoxygenase inhibitors” (Beecham Group PLC, priority 1984, dated 1990)
